Laboratory results as given in article PMC8286840, “Identifying SARS-CoV-2 antiviral compounds by screening for small molecule inhibitors of Nsp3 papain-like protease” (Biochemical Journal, 2021).
Where a name gives a salt, the structure may show the parent alone. Read-outs that look alike come from different tables or passages of the source.

What was measured:
[1] = molecular target: T1, SARS-CoV-2 PLpro (nsp3 1564–1878) (Severe acute respiratory syndrome coronavirus 2, UniProt P0DTD1); test: biochemical; parameters: FRET-quenched peptide (Pro3) cleavage by PLpro, 10 min pre-incubation, slope over 20 min, normalised to no-compound control; conditions: low concentration screen, read-out: % of control remaining
[2] = molecular target: T1, SARS-CoV-2 PLpro (nsp3 1564–1878); test: biochemical; parameters: FRET-quenched peptide (Pro3) cleavage by PLpro, 10 min pre-incubation, slope over 20 min, normalised to no-compound control; conditions: high concentration screen, read-out: % of control remaining

## N=C(N)NC(=O)c1nc(Cl)c(N)nc1N [Amiloride hydrochloride]
[1]; Well no.=148
  remaining activity at 1.25 µM: 96.9%
[2]; Well no.=148
  remaining activity at 3.75 µM: 94.6%

## N=C(N)NC(=O)c1nc(Cl)c(N)nc1N [Amiloride]
[1]; Well no.=1709
  remaining activity at 1.25 µM: 102%
[2]; Well no.=1709
  remaining activity at 3.75 µM: 99%

## CN1[C@@H]2CC[C@H]1C[C@@H](OC(c1ccccc1)c1ccccc1N)C2 (stereo partly drawn) [Aminobenztropine]
[1]; Well no.=206
  remaining activity at 1.25 µM: 97.2%
[2]; Well no.=206
  remaining activity at 3.75 µM: 98.3%

## NN=C(N)N [Aminoguanidine hemisulfate]
[1]; Well no.=213
  remaining activity at 1.25 µM: 95.8%
[2]; Well no.=213
  remaining activity at 3.75 µM: 96.8%

## N=C(N)NN [Aminoguanidine hydrochloride]
[1]; Well no.=104
  remaining activity at 1.25 µM: 93%
[2]; Well no.=104
  remaining activity at 3.75 µM: 94.6%

## Cn1c(=O)c2[nH]cnc2n(C)c1=O [Aminophylline]
[1]; Well no.=1542
  remaining activity at 1.25 µM: 101%
[2]; Well no.=1542
  remaining activity at 3.75 µM: 103%

## Nc1nc(N)c2nc(CNc3ccc(C(=O)N[C@@H](CCC(=O)O)C(=O)O)cc3)cnc2n1 [Aminopterin]
[1]; Well no.=153
  remaining activity at 1.25 µM: 101%
[2]; Well no.=153
  remaining activity at 3.75 µM: 104%

## CC(C)[C@H](CO)Nc1nc(Nc2cc(N)cc(Cl)c2)c2ncn(C(C)C)c2n1 [Aminopurvalanol A - (2R)-2-[[6-[(3-Amino-5-chlorophenyl)amino]-9-(1-methylethyl)-9H-purin-2-yl]amino]-3-methyl-1-butanol]
[1]; Well no.=2484
  remaining activity at 1.25 µM: 101%
[2]; Well no.=2484
  remaining activity at 3.75 µM: 108%

## CC(C)[C@H](CO)Nc1nc(Nc2cc(N)cc(Cl)c2)c2ncn(C(C)C)c2n1 [Aminopurvalanol A]
[1]; Well no.=2322
  remaining activity at 1.25 µM: 97.1%
[2]; Well no.=2322
  remaining activity at 3.75 µM: 97.4%

## CCCCc1oc2ccccc2c1C(=O)c1cc(I)c(OCCN(CC)CC)c(I)c1 [Amiodarone hydrochloride]
[1]; Well no.=198
  remaining activity at 1.25 µM: 97%
[2]; Well no.=198
  remaining activity at 3.75 µM: 98.7%

## CCCCc1oc2ccccc2c1C(=O)c1cc(I)c(OCCN(CC)CC)c(I)c1 [Amiodarone.HCl]
[1]; Well no.=1591
  remaining activity at 1.25 µM: 104%
[2]; Well no.=1591
  remaining activity at 3.75 µM: 103%

## CN(C)CCCO[C@@H]1[C@H]2OC(C)(C)O[C@H]2O[C@@H]1[C@H](O)CO [Amiprilose hydrochloride]
[1]; Well no.=207
  remaining activity at 1.25 µM: 101%
[2]; Well no.=207
  remaining activity at 3.75 µM: 103%

## CCN1CCCC1CNC(=O)c1cc(S(=O)(=O)CC)c(N)cc1OC (stereo not drawn) [Amisulpride]
[1]; Well no.=2275
  remaining activity at 1.25 µM: 93.3%
[1]; Well no.=8149
  remaining activity at 1.25 µM: 107%
[2]; Well no.=2275
  remaining activity at 3.75 µM: 97.7%
[2]; Well no.=8149
  remaining activity at 3.75 µM: 107%

## CN(C)CCC=C1c2ccccc2CCc2ccccc21 [Amitriptyline hydrochloride]
[1]; Well no.=150
  remaining activity at 1.25 µM: 103%
[2]; Well no.=150
  remaining activity at 3.75 µM: 98.5%

## CN(C)CCC=C1c2ccccc2CCc2ccccc21 [Amitriptyline.HCl]
[1]; Well no.=2122
  remaining activity at 1.25 µM: 102%
[2]; Well no.=2122
  remaining activity at 3.75 µM: 104%

## CCOC(=O)C1=C(COCCN)NC(C)=C(C(=O)OC)C1c1ccccc1Cl (stereo not drawn) [Amlodipine]
[1]; Well no.=1711
  remaining activity at 1.25 µM: 99.1%
[2]; Well no.=1711
  remaining activity at 3.75 µM: 99%

## CC1(C)[C@@H](O[C@H]2O[C@H](C(=O)O)[C@@H](O)[C@H](O)[C@H]2O[C@@H]2O[C@H](C(=O)O)[C@@H](O)[C@H](O)[C@H]2O)CC[C@]2(C)[C@H]3C(=O)C=C4[C@@H]5C[C@@](C)(C(=O)O)CC[C@]5(C)CC[C@@]4(C)[C@]3(C)CC[C@@H]12 [Ammonium Glycyrrhizinate]
[1]; Well no.=8386
  remaining activity at 1.25 µM: 97.7%
[2]; Well no.=8386
  remaining activity at 3.75 µM: 99%

## S=C(S)N1CCCC1 [Ammonium pyrrolidinedithiocarbamate]
[1]; Well no.=1495
  remaining activity at 1.25 µM: 102%
[2]; Well no.=1495
  remaining activity at 3.75 µM: 97.9%

## CCN(CC)Cc1cc(Nc2ccnc3cc(Cl)ccc23)ccc1O [Amodiaquine dihydrochloride dihydrate]
[1]; Well no.=8396
  remaining activity at 1.25 µM: 97.5%
[2]; Well no.=8396
  remaining activity at 3.75 µM: 106%

## CN(C)CCN1C(=O)c2cccc3cc(N)cc(c23)C1=O [Amonafide]
[1]; Well no.=5195
  remaining activity at 1.25 µM: 96.9%
[2]; Well no.=5195
  remaining activity at 3.75 µM: 96.7%

## CCC(C)(C)c1ccc(CC(C)CN2C[C@@H](C)O[C@@H](C)C2)cc1 (stereo partly drawn) [Amorolfine HCl]
[1]; Well no.=5337
  remaining activity at 1.25 µM: 98.1%
[2]; Well no.=5337
  remaining activity at 3.75 µM: 98.1%

## CCC(C)(C)c1ccc(CC(C)CN2C[C@@H](C)O[C@@H](C)C2)cc1 (stereo partly drawn) [Amorolfine]
[1]; Well no.=1748
  remaining activity at 1.25 µM: 99%
[2]; Well no.=1748
  remaining activity at 3.75 µM: 101%

## Clc1ccc2c(c1)C(N1CCNCC1)=Nc1ccccc1O2 [Amoxapine]
[1]; Well no.=158
  remaining activity at 1.25 µM: 97.7%
[1]; Well no.=1690
  remaining activity at 1.25 µM: 102%
[2]; Well no.=158
  remaining activity at 3.75 µM: 97.1%
[2]; Well no.=1690
  remaining activity at 3.75 µM: 103%

## CC1(C)S[C@@H]2[C@H](NC(=O)[C@H](N)c3ccc(O)cc3)C(=O)N2[C@H]1C(=O)O [Amoxicillin (sodium)]
[1]; Well no.=8274
  remaining activity at 1.25 µM: 91.5%
[2]; Well no.=8274
  remaining activity at 3.75 µM: 89.9%

## CC1(C)S[C@@H]2[C@H](NC(=O)[C@H](N)c3ccc(O)cc3)C(=O)N2[C@H]1C(=O)O [Amoxicillin (trihydrate)]
[1]; Well no.=8222
  remaining activity at 1.25 µM: 99.5%
[2]; Well no.=8222
  remaining activity at 3.75 µM: 96.8%

## CC1(C)S[C@@H]2[C@H](NC(=O)[C@H](N)c3ccc(O)cc3)C(=O)N2[C@H]1C(=O)O [Amoxicillin]
[1]; Well no.=2000
  remaining activity at 1.25 µM: 98.8%
[1]; Well no.=7654
  remaining activity at 1.25 µM: 97%
[2]; Well no.=2000
  remaining activity at 3.75 µM: 100%
[2]; Well no.=7654
  remaining activity at 3.75 µM: 97.6%

## CCNC(=O)N1CCN(CCCC(c2ccc(F)cc2)c2ccc(F)cc2)CC1 [Amperozide hydrochloride]
[1]; Well no.=165
  remaining activity at 1.25 µM: 92.6%
[2]; Well no.=165
  remaining activity at 3.75 µM: 96.4%

## C[C@@H]1[C@H](O)[C@@H](C)/C=C/C=C/C=C/C=C/C=C/C=C/C=C/[C@H](O[C@@H]2O[C@H](C)[C@@H](O)[C@H](N)[C@@H]2O)C[C@@H]2O[C@](O)(C[C@@H](O)C[C@@H](O)[C@H](O)CC[C@@H](O)C[C@@H](O)CC(=O)O[C@H]1C)C[C@H](O)[C@H]2C(=O)O [Amphotericin B]
[1]; Well no.=3470
  remaining activity at 1.25 µM: 101%
[2]; Well no.=3470
  remaining activity at 3.75 µM: 98.9%

## CC1(C)S[C@@H]2[C@H](NC(=O)[C@H](N)c3ccccc3)C(=O)N2[C@H]1C(=O)O [Ampicillin (sodium)]
[1]; Well no.=8708
  remaining activity at 1.25 µM: 101%
[2]; Well no.=8708
  remaining activity at 3.75 µM: 101%

## CC1(C)S[C@@H]2[C@H](NC(=O)[C@H](N)c3ccccc3)C(=O)N2[C@H]1C(=O)O [Ampicillin]
[1]; Well no.=2123
  remaining activity at 1.25 µM: 97.8%
[2]; Well no.=2123
  remaining activity at 3.75 µM: 97.3%

## CCOC(=O)OC(C)OC1=C(C(=O)Nc2ccccn2)N(C)S(=O)(=O)c2ccccc21 (stereo not drawn) [Ampiroxicam]
[1]; Well no.=2125
  remaining activity at 1.25 µM: 101%
[2]; Well no.=2125
  remaining activity at 3.75 µM: 103%

## CC(C)CN(C[C@@H](O)[C@H](Cc1ccccc1)NC(=O)O[C@H]1CCOC1)S(=O)(=O)c1ccc(N)cc1 [Amprenavir]
[1]; Well no.=2242
  remaining activity at 1.25 µM: 101%
[1]; Well no.=8648
  remaining activity at 1.25 µM: 94.1%
[2]; Well no.=2242
  remaining activity at 3.75 µM: 102%
[2]; Well no.=8648
  remaining activity at 3.75 µM: 95.7%
